The results in this text go back to EP0456514A1, “2-Fluoroneplanocin A and its production” (ASAHI KASEI KOGYO KABUSHIKI KAISHA, priority 1990, dated 1991).

Values after ≈ are worked out from the molar mass of the structure shown.

A short description of data set [1]: Single administration toxicity in mice. It is filed as in vivo. Conditions: 10 mg/kg, intra peritoneally in mice. Here is the method: 2 - Fluoroneplanocin A can be applied for an anti-neoplastic agent. Amount of dosage can be determined by considering curative effect, route of administration, ages or body weight of patient, and in general 10 - 500 mg/man/day will be applied. Administration can be done by perorally or parenterally, for example intravenous injection or drop infusion or intramuscular administration.

Data set [2] has as its target T1, Adenosine deaminase (Bos taurus, UniProt P56658).
T1 construct: Adenosine deaminase ( Calf inlestine, 400 U/ml glycerin, Boehringer 102091 ); purchased Boehringer 102091; host or cells: calf intestine (tissue-derived enzyme)
T1 sequence (P56658 1-363): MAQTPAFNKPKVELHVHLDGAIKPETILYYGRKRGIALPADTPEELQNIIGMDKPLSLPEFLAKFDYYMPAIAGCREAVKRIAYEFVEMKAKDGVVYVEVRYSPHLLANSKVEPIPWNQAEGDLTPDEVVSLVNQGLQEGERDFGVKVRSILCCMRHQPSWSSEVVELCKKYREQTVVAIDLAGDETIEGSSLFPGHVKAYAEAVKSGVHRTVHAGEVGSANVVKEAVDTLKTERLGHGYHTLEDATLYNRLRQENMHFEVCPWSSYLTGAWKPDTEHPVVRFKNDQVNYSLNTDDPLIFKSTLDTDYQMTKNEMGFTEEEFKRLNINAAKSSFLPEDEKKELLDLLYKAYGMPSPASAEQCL
In words: Resistance to adenosine deaminase (remaining sample measured by HPLC). As to conditions: for Remaining ratio (%) 0 min. / remaining at 0.5 h, 500 µM: 0.5 mM test sample, adenosine deaminase, 0.05 M Tris-HCl buffer (pH 7.2), 25 °C; for remaining at 0.5 h, 500 µM: bovine, 30min., read-out: Remaining ratio (%) 30min. It is filed as in vitro ADME, Calf. Here is the method:
(2) Resistance to adenosine deaminase:
A solution 0.5 mM of each test sample is prepared by dissolving the test sample in 0.05 M Tris-HCl buffer (pH 7.2). Adenosine deaminase ( Calf inlestine, 400 U/ml glycerin, Boehringer 102091 ) is diluled ten times with 0.05 M Tris-HCl buffer (pH 7.2) to prepare an adenosine deaminase solulion.
0.5 ml of each sample solulion is mixed with 10 µl of adenosine deaminase solution . The mixtures are allowed to stand in a water bath at 25 °C, and 4 µl samples thereof are pipetted off after 0 and 30 minutes. The remaining sample is measured by HPLC under the following conditions. HPLC: Column : Supersher RP-18-4 Eluent : 15% methanol Flow rate : 1.0 ml/min. Temperature : 50°C

For data set [3], the system named is L5178Y cells. In words: Growth inhibition activity against L5178Y cells. It is filed as cell-based. As to conditions: for IC50: Mus musculus, L5178Y cells, incubated at 37 °C for 48 hours, cell number by Coulter counter. How it is done: (1) Growth inhibition activity against L5178Y cells:
A solution of each test compound is prepared by dissolving the compound in RRMI 1640 medium containing 10% bovine serum. A cell suspension of L5178Y cells, 1.1× 10⁴ cells/ml, each suspension having a volume of 1.8 ml, is added to each test tube. A solution ( 0.2 ml ) of the test compound hereinabove is added thereto and the medium is tightly sealed and incubated at 37 °C for 48 hours. After incubation, the numberof cells is measured using a Coulter counter and the growth ratio of the cells is determined.

Turning to `Nc1nc(F)nc2c1ncn2[C@@H]1C=C(CO)[C@@H](O)[C@H]1O` [2-Fluoroneplanocin A, 2-fluoroneplanocin A], in data set [1], the death entry is “No death is observed”. Moreover, in data set [2], the “Remaining ratio (%) 0 min.” value is 100% and the remaining at 0.5 h, 500 µM came to 100%. In data set [2] (after 30 minutes of incubation), the “decomposition by adenosine deaminase” value is “not decomposed”. This molecule also gave an IC50 in data set [3] of 0.06 µg/mL (≈ 0.213 µM). The “growth inhibitory activity against L5178Y cells as compared with that of known neplanocin A” value in data set [3] (relative to neplanocin A) is “three times higher levels”.
Turning to `Nc1ncnc2c1ncn2[C@@H]1C=C(CO)[C@@H](O)[C@H]1O` [neplanocin A, Neplanocin A], in data set [2], the “Remaining ratio (%) 0 min.” value came out at 100% and the remaining at 0.5 h, 500 µM was 0%. It took 0.2 µg/mL (≈ 0.76 µM) to reach half-maximal inhibition in data set [3] (IC50).

In general, IC50 refers to the midpoint of a concentration-inhibition curve. Read a high IC50 as lower potency.
